Data taken from US20260285850A1, “SUBSTITUTED OXAZOLIDINONES AND IMIDAZOLINONES AS HERBICIDES” (FMC CORPORATION, priority 2023, published 2026).

Key:
Format in all cases: in vivo
[1] = system: barnyardgrass (Echinochloa crus-galli); assay: Test A preemergence soil spray, visual injury rating 0-100; conditions: 10 days
Outline: (§1)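 Seeds sown in loam-sand blend got a preemergence directed soil spray, or emerged plants (2-10 cm, one- to two-leaf) got a postemergence spray, of compound in non-phytotoxic solvent with surfactant. After 10 days in greenhouse, injury rated visually versus untreated controls on a 0 (no effect) to 100 (complete control) scale.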

[2] = system: blackgrass (Alopecurus myosuroides); assay: as above; conditions: 10 days
Outline: as §1

corn (Zea mays) [3] = assay: as above; conditions: 10 days
Outline: as §1

[4] = system: green foxtail (Setaria viridis); assay: as above; conditions: 10 days
Outline: as §1

kochia (Bassia scoparia) [5] = assay: as above; conditions: 10 days
Outline: as §1

[6] = system: oat, wild (wild oat, Avena fatua); assay: as above; conditions: 10 days
Outline: as §1

[7] = system: palmer (palmer amaranth, palmer pigweed, Amaranthus palmeri); assay: as above; conditions: 10 days
Outline: as §1

[8] = system: ragweed (common ragweed, Ambrosia artemisiifolia); assay: as above; conditions: 10 days
Outline: as §1

[9] = system: ryegrass, Italian (italian ryegrass, Lolium multiflorum); assay: as above; conditions: 10 days
Outline: as §1

soybean (Glycine max) [10] = assay: as above; conditions: 10 days
Outline: as §1

[11] = system: wheat (Triticum aestivum); assay: as above; conditions: 10 days
Outline: as §1

[12] = system: barnyardgrass (Echinochloa crus-galli); assay: Test A postemergence application, visual injury rating 0-100
Outline: as §1

[13] = system: blackgrass (Alopecurus myosuroides); assay: as above
Outline: as §1

corn (Zea mays) [14] = assay: as above
Outline: as §1

[15] = system: green foxtail (Setaria viridis); assay: as above
Outline: as §1

[16] = system: horseweed (Erigeron canadensis); assay: as above
Outline: as §1

kochia (Bassia scoparia) [17] = assay: as above
Outline: as §1

[18] = system: oat, wild (wild oat, Avena fatua); assay: as above
Outline: as §1

[19] = system: palmer (palmer amaranth, palmer pigweed, Amaranthus palmeri); assay: as above
Outline: as §1

[20] = system: ragweed (common ragweed, Ambrosia artemisiifolia); assay: as above
Outline: as §1

[21] = system: ryegrass, Italian (italian ryegrass, Lolium multiflorum); assay: as above
Outline: as §1

soybean (Glycine max) [22] = assay: as above
Outline: as §1

[23] = system: wheat (Triticum aestivum); assay: as above
Outline: as §1

[24] = system: barnyardgrass (Echinochloa crusgalli); assay: Test B flooded paddy test, visual plant response rating 0-100; conditions: 250 g ai/ha, Flood, applied to paddy water, evaluated after 13 days
Outline: (§2)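 Visual scores versus untreated controls were recorded 13 days after treatment of greenhouse-held plants. At the 2-leaf stage, pots were flooded 3 cm above the soil surface and compounds added straight to the water.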

[25] = system: ducksalad (Heteranthera limosa); assay: as above; conditions: 250 g ai/ha, Flood, applied to paddy water, evaluated after 13 days
Outline: as §2

rice (Oryza sativa) = assay: as above; conditions: 250 g ai/ha, Flood, applied to paddy water, evaluated after 13 days
Outline: as §2

[26] = system: sedge, umbrella (small-flower umbrella sedge, Cyperus difformis); assay: as above; conditions: 250 g ai/ha, Flood, applied to paddy water, evaluated after 13 days
Outline: as §2

[27] = 62 g ai/ha, 0 = no effect, 100 = complete control
[28] = 62 g ai/ha, postemergence, 10 days, 0 = no effect, 100 = complete control
[29] = Postemergence, 16 g ai/ha, greenhouse 10 days, 0 no effect, 100 complete control

COC(=O)COC(=O)C1=CCC(NC(=O)C2(C)CN(c3cc(Cl)cc(Cl)c3)C(=O)O2)C1 (centres unmarked) [Compound 109]
Barnyardgrass plant response rating ([1]; 16 g ai/ha, 0 to 100 scale): 0
Barnyardgrass plant response rating (0-100) [1, 27]: 0
Blackgrass plant response rating ([2]; 16 g ai/ha, 0 to 100 scale): 0
Blackgrass plant response rating (0-100) [2, 27]: 0
Corn plant response rating (corn (Zea mays) [3]; 16 g ai/ha, 0 to 100 scale): 0
Corn plant response rating (0-100) (corn (Zea mays) [3]; [27]): 0
Foxtail, Green plant response rating ([4]; 16 g ai/ha, 0 to 100 scale): 0
Foxtail, Green plant response rating (0-100) [4, 27]: 0
Kochia plant response rating (kochia (Bassia scoparia) [5]; 16 g ai/ha, 0 to 100 scale): 0
Kochia plant response rating (0-100) (kochia (Bassia scoparia) [5]; [27]): 0
Oat, Wild plant response rating ([6]; 16 g ai/ha, 0 to 100 scale): 0
Oat, Wild plant response rating (0-100) [6, 27]: 0
Pigweed, Palmer plant response rating ([7]; 16 g ai/ha, 0 to 100 scale): 0
Pigweed, Palmer plant response rating (0-100) [7, 27]: 0
Ragweed plant response rating ([8]; 16 g ai/ha, 0 to 100 scale): 0
Ragweed plant response rating (0-100) [8, 27]: 0
Ryegrass, Italian plant response rating ([9]; 16 g ai/ha, 0 to 100 scale): 0
Ryegrass, Italian plant response rating (0-100) [9, 27]: 0
Soybean plant response rating (soybean (Glycine max) [10]; 16 g ai/ha, 0 to 100 scale): 0
Soybean plant response rating (0-100) (soybean (Glycine max) [10]; [27]): 0
Wheat plant response rating ([11]; 16 g ai/ha, 0 to 100 scale): 0
Wheat plant response rating (0-100) [11, 27]: 0
Barnyardgrass plant response rating (0-100) [12, 28]: 20
Barnyardgrass plant response rating (0 to 100 scale) [12, 29]: 0
Blackgrass plant response rating (0-100) [13, 28]: 30
Blackgrass plant response rating (0 to 100 scale) [13, 29]: 0
Corn plant response rating (0-100) (corn (Zea mays) [14]; [28]): 0
Corn plant response rating (0 to 100 scale) (corn (Zea mays) [14]; [29]): 0
Foxtail, Green plant response rating (0-100) [15, 28]: 0
Foxtail, Green plant response rating (0 to 100 scale) [15, 29]: 0
Horseweed plant response rating (0-100) [16, 28]: 20
Horseweed plant response rating (0 to 100 scale) [16, 29]: 0
Kochia plant response rating (0-100) (kochia (Bassia scoparia) [17]; [28]): 0
Kochia plant response rating (0 to 100 scale) (kochia (Bassia scoparia) [17]; [29]): 0
Oat, Wild plant response rating (0-100) [18, 28]: 0
Oat, Wild plant response rating (0 to 100 scale) [18, 29]: 0
Pigweed, Palmer plant response rating (0-100) [19, 28]: 40
Pigweed, Palmer plant response rating (0 to 100 scale) [19, 29]: 0
Ragweed plant response rating (0-100) [20, 28]: 0
Ragweed plant response rating (0 to 100 scale) [20, 29]: 0
Ryegrass, Italian plant response rating (0-100) [21, 28]: 0
Ryegrass, Italian plant response rating (0 to 100 scale) [21, 29]: 0
Soybean plant response rating (0-100) (soybean (Glycine max) [22]; [28]): 0
Soybean plant response rating (0 to 100 scale) (soybean (Glycine max) [22]; [29]): 0
Wheat plant response rating (0-100) [23, 28]: 0
Wheat plant response rating (0 to 100 scale) [23, 29]: 0
Plant response rating, Barnyardgrass (0 to 100 scale, 0 is no effect and 100 is complete control) [24]: 0
Plant response rating, Ducksalad (0 to 100 scale, 0 is no effect and 100 is complete control) [25]: 0
Plant response rating, Rice (0 to 100 scale, 0 is no effect and 100 is complete control) (rice (Oryza sativa)): 0
Plant response rating, Sedge, Umbrella (0 to 100 scale, 0 is no effect and 100 is complete control) [26]: 0
